Data set [1] deals with SKv-l1, a transformed keratinocyte cell line containing human papilloma virus 16 (HPV 16). The data set can be described thus: Proliferation assay by direct cell counting on HPV 16-containing transformed keratinocytes. The data set is classed as cell-based. Conditions: 48 h, 10^-6 M, incubated for 2 days, p < 0.001, read-out: inhibited proliferation (growth inhibition in % compared to controls). The procedure:
9-cis retinoic acid was further investigated on its effect on other transformed cell lines. A proliferation assay was performed on a virus containing cell line. SKv-l1, a transformed keratinocyte cell line containing human papilloma virus 16 (HPV 16) was tested with regard to inhibition of proliferation by 9-cis retinoic acid in two experiments with four replicates. 5·10^4 cells/well were plated in Eagle's medium and incubated for 2 days. Direct cell counting with a hemocytometer was done before and after incubation with the retinoid in a concentration of 10^-6 M and in corresponding DMSO controls. Growth inhibition was expressed in % compared to controls.

The test system of data set [2] is SKv-e2 (tumorigenic). Description: Cell induced angiogenesis, in vivo pretreatment of mice, SKv-e2. Also on record: species or system Balb/c mice. The settings on record: mice pretreated in vivo intraperitoneally before intradermal cell injection, control 31.3 ± 2.7. How it is done: (§1) The angiogenesis assays have been, previously described (Sidky YA and Auerbach R. Lymphocyte induced angiogenesis: A quantitative and sensitive assay of the graft-vs-host reaction. J. exp Med 141: 1084-1100, 1975. Majewski S et al. Inhibition of tumour-induced angiogenesis by systemically administered protamine sulphate. Int J Cancer 33: 831-833, 1984). Two assays were used in testing 9-cis retinoic acid. In the first assay the retinoid was added in vitro to the cell line before being injected into mice. In the second assay the mice were injected intraperitoneally with the retinoid in vivo before the tumor cell line was injected intradermally.

A further data set has as its system SKv-12 (Tumorigenic). The data set can be described thus: Cell induced angiogenesis, in vivo pretreatment of mice, SKv-12. The settings on record: mice pretreated in vivo intraperitoneally before intradermal cell injection, control 30.3 ± 2.6. Also on record: species or system Balb/c mice. The procedure:
as §1

The test system of data set [3] is HeLa (tumorigenic). The data set can be described thus: Cell induced angiogenesis, in vivo pretreatment of mice, HeLa. Also on record: species or system Balb/c mice. Conditions: mice pretreated in vivo intraperitoneally before intradermal cell injection, control 28.3 ± 0.8. How it is done:
as §1

Data set [4] relates to SKv-e1 (non-tumorigenic). Description: Cell induced angiogenesis, in vitro preincubation of cells, SKv-e1. It is filed as in vivo, Balb/c mice. The procedure: as §1
(§2) Method: Cells of two tumorigenic cell lines, SKv-e2 and HeLa, and of a non-tumorigenic cell line, SKv-e1 were preincubated in vitro for 48 hours with 9-cis retinoic acid at a concentration of 10^-7 M followed by cell counting and washing in TC 199 medium. The cell concentration was adjusted to 2·10^5 viable cells per 0.1 ml of medium and injected intradermally into X-ray irradiated, but not retinoid-treated Balb/c mice. Controls were injected with tumor cells preincubated with DMSO. The angiogenic effect was determined according to the methods referred to above.

Data set [5] relates to SKv-e1 (non-tumorigenic). The data set can be described thus: Cell induced angiogenesis, in vivo pretreatment of mice, SKv-e1. Also on record: species or system Balb/c mice. The procedure: as §1
Data set [6] in a line: Acute toxicity, single intraperitoneal dose. The data set is classed as in vivo, Füllinsdorf albino mice. Conditions: single i.p. dose in rape oil. The procedure: Acute Toxicity was determined in Füllinsdorf albino mice. 9-cis retinoic acid was suspended in rape oil and administered intraperitoneally in one single dose. The lethal dose (LD) of 10%, 50% and 90% of the mice was recorded 24 hours, 10 days and 20 days after the application of the single dose. For each group 10 mice were used.

Data set [7] concerns SKv-e2 (tumorigenic). The data set can be described thus: Tumor cell induced angiogenesis, in vitro preincubation of cells, SKv-e2. Conditions: SKv-e2 cells preincubated in vitro 48 hours with 10^-7 M, injected intradermally into untreated Balb/c mice; controls 34.7±3.7. The data set is classed as in vivo. How it is done:
as §1, §2

The subject of data set [8] is HeLa (tumorigenic). Description: Tumor cell induced angiogenesis, in vitro preincubation of cells, HeLa. The data set is classed as in vivo. Conditions: HeLa cells preincubated in vitro 48 hours with 10^-7 M, injected intradermally into untreated Balb/c mice; controls 32.5±2.7. The procedure:
as §1, §2

Some results are limits rather than exact numbers.

In general, LD50 refers to the dose expected to kill half of the subjects tested. A lower LD50 goes with a more toxic substance.

For the compound `CC(=CC=C/C(C)=C/C(=O)O)/C=C/C1=C(C)CCCC1(C)C` (stereo in doubt) [9-cis retinoic acid, (E,Z,E,E)-3,7-dimethyl-9-[2,6,6-trimethyl-1-cyclohexen-1-yl]-2,4,6,8-nonatetraenoic acid], the inhibition at 1 µM in data set [1] came out at 32.4%. Also, the “Mean number of blood vessels” value was 19.7 ± 0.6 in the data set on SKv-e2 (tumorigenic) [2]; 15.3 ± 1.0 in the data set with SKv-12 (Tumorigenic); 16.3 ± 1.8 in the data set with HeLa (tumorigenic) [3]; 25.6±2.2 p < 0.1 in the data set with SKv-e1 (non-tumorigenic) [4] (SKv-e1 cells preincubated in vitro 48 hours with 10^-7 M, injected intradermally into untreated Balb/c mice, controls 26.3±1.5); 24.3 ± 5.6 in the data set on SKv-e1 (non-tumorigenic) [5] (SKv-e1, mice pretreated in vivo intraperitoneally before intradermal cell injection, control 19.7 ± 3.7); 23.6±4.2 p < 0.001 with SKv-e2 (tumorigenic) [7]. Moreover, the “Mean number of blood vessels” value in the data set on HeLa (tumorigenic) [8] stood at 23.8±2.9 p < 0.001. Further, the “angiogenesis induced by the non-tumorigenic subline” value with SKv-e1 (non-tumorigenic) [4] (in vitro preincubation of SKv-e1 cells, result in words) is “did not inhibit angiogenesis”. Moreover, the “anti-angiogenic effect with a non-tumorigenic cell line” value in the data set on SKv-e1 (non-tumorigenic) [5] (mice treated in vivo, result in words) is listed as “no anti-angiogenic effect”. For the same compound, in data set [6] (Füllinsdorf albino, mouse, in vivo, ip, recorded 24 hours after), the LD50 at 24 hours was > 4000 mg/kg. Further, the LD50 at 10 days in data set [6] (Füllinsdorf albino, mouse, in vivo, ip, recorded 10 days after) turned out to be 1400 mg/kg. This compound yielded an LD50 at 20 days in data set [6] (Füllinsdorf albino, mouse, in vivo, ip, recorded 20 days after) of 1400 mg/kg. For the same compound, the “LD 10%” value in data set [6] (recorded 24 hours after) was > 4000 mg/kg; in data set [6] (recorded 10 days after), 1200 mg/kg; in data set [6] (recorded 20 days after) it was 1200 mg/kg. The “LD 90%” value was > 4000 mg/kg in data set [6] (recorded 24 hours after), 1800 mg/kg in [6] (recorded 10 days after) and 1800 mg/kg in [6] (recorded 20 days after).
